Assay results taken from the supplement of paper PMC10307832.

How the values were obtained:
Experiment in all cases: relative viability (nuclei count vs DMSO), 5 days (fraction); higher = more cells survive
Neratinib + Bortezomib = compound: CCOc1cc2ncc(C#N)c(Nc3ccc(OCc4ccccn4)c(Cl)c3)c2cc1NC(=O)/C=C/CN(C)C [Neratinib] + CC(C)C[C@H](NC(=O)[C@H](Cc1ccccc1)NC(=O)c1cnccn1)B(O)O [Bortezomib] (partner 0.002 µM)
In short: (§1)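 Relative viability was taken as the ratio of nuclei in treated wells to nuclei in vehicle wells. Lung cancer cell lines in 1536-well plates received compounds by pin tool one day after seeding, either one drug alone or a fixed anchor-drug dose plus five library-drug doses (not always all listed) in √10 steps. Nuclei were counted on 4× images after 5 days of treatment, and values are medians of duplicate plates.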

Neratinib + Navitoclax = compound: CCOc1cc2ncc(C#N)c(Nc3ccc(OCc4ccccn4)c(Cl)c3)c2cc1NC(=O)/C=C/CN(C)C [Neratinib] + CC1(C)CCC(c2ccc(Cl)cc2)=C(CN2CCN(c3ccc(C(=O)NS(=O)(=O)c4ccc(N[C@H](CCN5CCOCC5)CSc5ccccc5)c(S(=O)(=O)C(F)(F)F)c4)cc3)CC2)C1 [Navitoclax] (partner 0.5 µM)
In short: as §1

Neratinib + Dasatinib = compound: CCOc1cc2ncc(C#N)c(Nc3ccc(OCc4ccccn4)c(Cl)c3)c2cc1NC(=O)/C=C/CN(C)C [Neratinib] + Cc1nc(Nc2ncc(C(=O)Nc3c(C)cccc3Cl)s2)cc(N2CCN(CCO)CC2)n1 [Dasatinib] (partner 0.075 µM)
In short: as §1

Neratinib + Luminespib = compound: CCOc1cc2ncc(C#N)c(Nc3ccc(OCc4ccccn4)c(Cl)c3)c2cc1NC(=O)/C=C/CN(C)C [Neratinib] + CCNC(=O)c1noc(-c2cc(C(C)C)c(O)cc2O)c1-c1ccc(CN2CCOCC2)cc1 [Luminespib] (partner 0.01 µM)
In short: as §1

Cell Line	relative viability (Neratinib + Bortezomib; first compound 0.01 µM)	relative viability (Neratinib + Bortezomib; first compound 0.03162 µM)	relative viability (Neratinib + Bortezomib; first compound 0.3162 µM)	relative viability (Neratinib + Bortezomib; first compound 1 µM)	relative viability (Neratinib + Navitoclax; first compound 0.01 µM)	relative viability (Neratinib + Navitoclax; first compound 0.1 µM)	relative viability (Neratinib + Navitoclax; first compound 0.3162 µM)	relative viability (Neratinib + Navitoclax; first compound 1 µM)	relative viability (Neratinib + Dasatinib; first compound 0.01 µM)	relative viability (Neratinib + Dasatinib; first compound 0.03162 µM)	relative viability (Neratinib + Dasatinib; first compound 0.1 µM)	relative viability (Neratinib + Dasatinib; first compound 0.3162 µM)	relative viability (Neratinib + Dasatinib; first compound 1 µM)	relative viability (Neratinib + Bortezomib; first compound 0.1 µM)	relative viability (Neratinib + Navitoclax; first compound 0.03162 µM)	relative viability (Neratinib + Luminespib; first compound 0.01 µM)	relative viability (Neratinib + Luminespib; first compound 0.03162 µM)	relative viability (Neratinib + Luminespib; first compound 0.1 µM)	relative viability (Neratinib + Luminespib; first compound 0.3162 µM)	relative viability (Neratinib + Luminespib; first compound 1 µM)
HCC-366	1.16	1.13	1.01	1.07	1.08	0.975	1.11	1.02	0.688	0.716	0.615	0.588	0.689							
HCC-827	1.05	1.07	1.13	0.376	1.02	1	0.924	0.201	0.421	0.39	0.366	0.248	0.169	0.876	1.09	1.08	1.03	0.703	0.176	0.18
HOP-62	0.872	0.855	0.541	1		1.1	0.996	1.1	0.636	0.67	0.602	0.686	0.676	0.624	1.07	0.917	0.974	0.893	0.884	0.927
IA-LM	0.952	0.908	0.891	0.507	0.814		0.65	0.494						0.787	0.774					
LC-2-ad	1	1.07	1	0.963	0.519	0.411	0.315	0.135	0.569	0.697	0.545	0.304	0.342	0.866	0.398	1.11	1.1	1.04	0.87	0.465
LCLC-97TM1	0.786	0.347	0.41	0.298	0.402	0.633	0.511	0.294	1.05	0.859	0.858	0.726	0.693	0.739	0.381	0.823	0.837	0.762	0.684	0.589
LCLC-103H	1.18	1.1	1.16	1.1					0.551	0.5	0.415	0.375	0.346	0.905		0.921	0.981	0.883	0.93	0.647
LK-2					0.944	0.859	0.639	0.342	0.28	0.275	0.354	0.258	0.218		0.97	0.183	0.21	0.197	0.18	0.125
LOU-NH91	0.477	0.51	0.507	0.559	0.682	0.517	0.374	0.279	0.579	0.504	0.448	0.413	0.377	0.484	0.582	0.38	0.328	0.338	0.331	0.287
NCI-H358									0.131	0.131	0.104	0.146	0.126			0.301	0.518	0.279	0.108	0.12
NCI-H650	0.94	1.07		0.852					0.489	0.493	0.477	0.416	0.463	1.08		0.814	0.888	0.621	0.722	0.392
NCI-H661	0.779	0.697	0.446	0.24					0.924	0.741	0.5	0.317	0.338	0.675		0.966	0.905	0.593	0.587	0.372
NCI-H1299	1.03	1	1.03	1.1	1.04	0.986	1.07	1.11						0.965	1.06					
NCI-H1395					1.16	1.14	1.08	0.734	0.406	0.388	0.458	0.413	0.318		1.24	0.59		0.903	0.814	0.418
NCI-H1563	0.812		0.752	0.647					0.513	0.485	0.499	0.41	0.332	0.685		0.57	0.498	0.488	0.503	0.484
NCI-H1703	0.335	0.345	0.233	0.18	1.46	0.929	0.884	0.286						0.394	0.921					
NCI-H1793					0.757	0.371	0.352	0.217	0.43	0.457	0.321	0.34	0.264		0.497	0.153	0.182	0.153	0.164	0.157
NCI-H1944					1.03	0.871	0.814	0.677	0.201	0.211	0.193	0.205	0.181		1		0.669		0.523	0.306
NCI-H2170					0.391	0.274	0.196	0.184	0.527	0.563	0.283	0.176	0.196		0.377	0.727	0.637	0.365	0.271	0.304
SK-MES-1					1.38	1.06	0.651	0.432	0.375	0.25	0.163	0.14	0.14		1.3	1.08	0.437	0.428	0.267	0.187
SW 900									0.544	0.732	0.392	0.458	0.454			0.184	0.157	0.148	0.194	0.169
